# In ChEMBL document CHEMBL1201862, “PubChem BioAssay data set” (2004):
#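 Five compound concentrations were applied to cells in 96-well plates for 48 hours; endpoints were derived by simple linear interpolation of the resulting dose-response curve. Here, GI50 denotes the concentration required for 50% inhibition of growth.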 The source made the active and inactive calls. Cut-off read from the data, not from the text of the source: active = GI50 up to about 1.1 µM and inactive = higher.
# Experiments:
# Experiment in all cases: NCI anticancer screen, dose series, 48 h
# [1] = tested on: A498
# [2] = tested on: A549
# [3] = tested on: BT-549
# [4] = tested on: CCRF-CEM
# [5] = tested on: DU-145
# [6] = tested on: EKVX
# [7] = tested on: MCF7
# [8] = tested on: MDA-MB-231
# [9] = tested on: Malme-3M
# [10] = tested on: NCI-H522
# [11] = tested on: OVCAR-3
# [12] = tested on: OVCAR-5
# [13] = tested on: PC-3
# [14] = tested on: RXF 393
# [15] = tested on: SK-MEL-28
# [16] = tested on: SK-MEL-5
# [17] = tested on: SNB-75
# [18] = tested on: SR
# [19] = tested on: U-251
Compound,GI50 [1],GI50 [2],GI50 [3],GI50 [4],GI50 [5],GI50 [6],GI50 [7],GI50 [8],GI50 [9],GI50 [10],GI50 [11],GI50 [12],GI50 [13],GI50 [14],GI50 [15],GI50 [16],GI50 [17],GI50 [18],GI50 [19]
O=C1Nc2ccc([N+](=O)[O-])cc2/C1=N/NC(=S)Nc1ccc([N+](=O)[O-])cc1,18.2 µM (inactive),21.1 µM (inactive),16.4 µM (inactive),18.7 µM (inactive),21.5 µM (inactive),26.2 µM (inactive),25.4 µM (inactive),24.7 µM (inactive),33.3 µM (inactive),30.9 µM (inactive),22.9 µM (inactive),28.7 µM (inactive),24.2 µM (inactive),17.5 µM (inactive),26.5 µM (inactive),15.8 µM (inactive),21.8 µM (inactive),30.2 µM (inactive),23.7 µM (inactive)
Cc1nc2sccn2c1/C=C1/C(=O)Nc2cccc(Cl)c21,87.3 µM (inactive),> 100 µM (inactive),> 100 µM (inactive),> 100 µM (inactive),> 100 µM (inactive),79.6 µM (inactive),23 µM (inactive),50.4 µM (inactive),> 100 µM (inactive),45.8 µM (inactive),> 100 µM (inactive),73.5 µM (inactive),80.7 µM (inactive),> 100 µM (inactive),> 100 µM (inactive),45.7 µM (inactive),> 100 µM (inactive),61.9 µM (inactive),> 100 µM (inactive)
ClCCCCCc1c2nc(c(CCCCCCl)c3ccc([nH]3)c(CCCCCCl)c3nc(c(CCCCCCl)c4ccc1[nH]4)C=C3)C=C2,> 100 µM (inactive),> 100 µM (inactive),> 100 µM (inactive),> 100 µM (inactive),1 µM (active),> 100 µM (inactive),> 100 µM (inactive),> 100 µM (inactive),> 100 µM (inactive),> 100 µM (inactive),> 100 µM (inactive),> 100 µM (inactive),> 100 µM (inactive),> 100 µM (inactive),> 100 µM (inactive),> 100 µM (inactive),83.4 µM (inactive),> 100 µM (inactive),> 100 µM (inactive)
CCCCCCCCCc1cccc(N2C(N)=NC(N)=NC2(C)C)c1,1.24 µM (inactive),< 0.01 µM (active),1 µM (active),0.197 µM (active),< 0.0307 µM (active),< 0.0329 µM (active),< 0.0204 µM (active),0.302 µM (active),0.104 µM (active),0.0451 µM (active),0.0547 µM (active),–,< 0.0184 µM (active),1.95 µM (inactive),0.871 µM (active),0.0277 µM (active),0.735 µM (active),< 0.01 µM (active),< 0.01 µM (active)
Cc1cc([C@H](C#N)c2nc3ccccc3[nH]2)nc(Cl)n1,41.8 µM (inactive),33.9 µM (inactive),53.6 µM (inactive),30.8 µM (inactive),30.6 µM (inactive),62.2 µM (inactive),41.8 µM (inactive),59.3 µM (inactive),77.3 µM (inactive),–,–,–,30.9 µM (inactive),33.3 µM (inactive),39.1 µM (inactive),13.7 µM (inactive),31 µM (inactive),54.8 µM (inactive),23.6 µM (inactive)
Cc1ccc(N2C(=O)C(=O)N(/N=C3\C(=O)Nc4ccccc43)C2=S)cc1,> 100 µM (inactive),> 100 µM (inactive),85.3 µM (inactive),7.96 µM (inactive),> 100 µM (inactive),> 100 µM (inactive),43.2 µM (inactive),> 100 µM (inactive),> 100 µM (inactive),63.2 µM (inactive),64.4 µM (inactive),> 100 µM (inactive),39.4 µM (inactive),39.1 µM (inactive),> 100 µM (inactive),41.2 µM (inactive),> 100 µM (inactive),38.7 µM (inactive),26.3 µM (inactive)
O=C(O)CCSC1=NCCN1,> 100 µM (inactive),> 100 µM (inactive),> 100 µM (inactive),98.6 µM (inactive),> 100 µM (inactive),> 100 µM (inactive),> 100 µM (inactive),> 100 µM (inactive),> 100 µM (inactive),> 100 µM (inactive),> 100 µM (inactive),> 100 µM (inactive),> 100 µM (inactive),> 100 µM (inactive),> 100 µM (inactive),> 100 µM (inactive),> 100 µM (inactive),> 100 µM (inactive),> 100 µM (inactive)
O=C1CSC(c2cccc(Oc3ccccc3)c2)N1c1ccc(Cl)cc1 (configuration not stated),17.5 µM (inactive),31.9 µM (inactive),27.7 µM (inactive),51.4 µM (inactive),52.2 µM (inactive),20.7 µM (inactive),15.3 µM (inactive),27.4 µM (inactive),20.4 µM (inactive),16.3 µM (inactive),39.4 µM (inactive),65.5 µM (inactive),23 µM (inactive),20.4 µM (inactive),41.2 µM (inactive),11.9 µM (inactive),28 µM (inactive),14 µM (inactive),31 µM (inactive)
CCOC(=O)Nc1cc2c(c(N)n1)N=C(c1ccc(Cl)cc1Cl)CN2,2.68 µM (inactive),< 0.0191 µM (active),0.791 µM (active),< 0.0155 µM (active),< 0.0191 µM (active),1.63 µM (inactive),0.132 µM (active),0.0442 µM (active),< 0.0178 µM (active),< 0.0213 µM (active),0.0109 µM (active),0.0392 µM (active),< 0.0129 µM (active),< 0.01 µM (active),–,< 0.0124 µM (active),< 0.01 µM (active),< 0.01 µM (active),< 0.019 µM (active)
CC(=O)O[C@H]1CC[C@H]2[C@@H]3CCC4C(C)=NNC(=O)C4[C@H]3CC[C@]12C (some centres not stated),37.2 µM (inactive),> 100 µM (inactive),> 45.3 µM (inactive),> 100 µM (inactive),> 75.5 µM (inactive),48.9 µM (inactive),> 100 µM (inactive),33.3 µM (inactive),99.8 µM (inactive),34 µM (inactive),> 100 µM (inactive),> 100 µM (inactive),> 100 µM (inactive),56.6 µM (inactive),> 100 µM (inactive),> 100 µM (inactive),14.2 µM (inactive),> 100 µM (inactive),36.5 µM (inactive)
CNCCCn1c2ccccc2c2c3c(c(-c4ccsc4)cc21)C(=O)NC3=O,< 0.0104 µM (active),1.17 µM (inactive),2.1 µM (inactive),0.216 µM (active),0.179 µM (active),1.85 µM (inactive),0.0984 µM (active),1.57 µM (inactive),0.163 µM (active),1.66 µM (inactive),1.15 µM (inactive),1.5 µM (inactive),0.178 µM (active),0.0112 µM (active),1.78 µM (inactive),0.735 µM (active),1.91 µM (inactive),< 0.01 µM (active),1.95 µM (inactive)
O=C1Nc2ccc(S(=O)(=O)NCCO)cc2/C1=C1/Nc2ccccc2C1=O,2.53 µM (inactive),> 100 µM (inactive),3.98 µM (inactive),3.23 µM (inactive),8 µM (inactive),7.69 µM (inactive),0.475 µM (active),12 µM (inactive),40.8 µM (inactive),1.86 µM (inactive),4.06 µM (inactive),46.5 µM (inactive),12.2 µM (inactive),4.36 µM (inactive),> 100 µM (inactive),12.7 µM (inactive),1.97 µM (inactive),1.01 µM (active),3.16 µM (inactive)
CCC(/C=C/c1ccccc1)=N\NC(=S)N/N=C(/C=C/c1ccccc1)CC,20.8 µM (inactive),17.2 µM (inactive),> 100 µM (inactive),7.55 µM (inactive),26.1 µM (inactive),> 100 µM (inactive),41.8 µM (inactive),> 100 µM (inactive),90.8 µM (inactive),30.5 µM (inactive),22.9 µM (inactive),–,72.9 µM (inactive),38.5 µM (inactive),> 100 µM (inactive),23 µM (inactive),> 100 µM (inactive),16.9 µM (inactive),18.1 µM (inactive)
COc1cc(C2c3cc(O)c(OC)cc3C3OCC2C3CO)ccc1O (configuration not stated),> 100 µM (inactive),> 100 µM (inactive),> 100 µM (inactive),–,> 100 µM (inactive),> 100 µM (inactive),> 100 µM (inactive),> 100 µM (inactive),> 100 µM (inactive),> 100 µM (inactive),> 100 µM (inactive),> 100 µM (inactive),> 100 µM (inactive),> 100 µM (inactive),> 100 µM (inactive),> 100 µM (inactive),> 100 µM (inactive),> 100 µM (inactive),> 100 µM (inactive)
Cc1ccc(/C=C2\Cc3cc(C)c(C)cc3C2=O)c(C(=O)O)c1,22.8 µM (inactive),30.8 µM (inactive),16.3 µM (inactive),27 µM (inactive),26.7 µM (inactive),87.7 µM (inactive),24.7 µM (inactive),28.2 µM (inactive),42.1 µM (inactive),22.1 µM (inactive),37.9 µM (inactive),–,22.3 µM (inactive),28.2 µM (inactive),52.5 µM (inactive),29.1 µM (inactive),30.3 µM (inactive),52.2 µM (inactive),26.1 µM (inactive)
